Reference: patent US20240148821A1, “PHARMACEUTICAL USE OF CYCLIC PEPTIDE COMPOUND” (CHUGAI SEIYAKU KABUSHIKI KAISHA, priority 2021, published 2024)
Bridge positions count the residues as written; N and C are the ends. Square brackets hold non-standard residues; d marks the D form. Peptide text beside a SMILES is read from it. * marks the point of attachment. hPhe(3-Cl-4-CF3) = N[C@@H](CCc1ccc(C(F)(F)F)c(Cl)c1)C(=O)O; NMePhe(4-CF3) = CN[C@@H](Cc1ccc(C(F)(F)F)cc1)C(=O)O; NMePhe(3,4-F2) = CN[C@@H](Cc1ccc(F)c(F)c1)C(=O)O; 3Oxa8azabicyclo(3.2.1)octane = C1CC2COCC1N2*; hPhe(4-Cl) = N[C@@H](CCc1ccc(Cl)cc1)C(=O)O; NMeGly(cPent) = CN[C@H](C(=O)O)C1CCCC1; Met(O2) = CS(=O)(=O)CC[C@H](N)C(=O)O; NMeAla(cPr) = CN[C@@H](CC1CC1)C(=O)O; NMeCha = CN[C@@H](CC1CCCCC1)C(=O)O; NMeAhp(2) = CCCCC[C@H](NC)C(=O)O; NMeChg = CN[C@H](C(=O)O)C1CCCCC1; NMeI = CC[C@H](C)[C@H](NC)C(=O)O; N(CH2CH2)2CF2 = FC1(F)CCN(*)CC1; NMeD = CN[C@@H](CC(=O)O)C(=O)O; NMeL = CN[C@@H](CC(C)C)C(=O)O; NMeV = CN[C@H](C(=O)O)C(C)C; NMeS = CN[C@@H](CO)C(=O)O; NMeA = CN[C@@H](C)C(=O)O; Piperidide = C1CCN(*)CC1; Pyrrolidide = C1CCN(*)C1; Ac5c = NC1(C(=O)O)CCCC1; Aze = O=C(O)[C@@H]1CCN1; Sar = CNCC(=O)O; Propyl = CCC*

Tests used:
[1] = biological target: protein-protein interaction between Kras and SOS1 (biotin-tagged human Kras loaded with GDP, His-tagged human SOS1) (Homo sapiens (Human), UniProt P01116, G12D); test: Protein-protein interaction inhibition between Kras and SOS1 (KrasG12D-SOS PPI) using AlphaScreen; format: biochemical; conditions: AlphaScreen; biotin-tagged human Kras loaded with GDP, His-tagged human SOS1; read-out: KRAS G12D-SOS PPI IC50;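 further: kras produced in E. coli, Ni-coupled donor beads and streptavidin acceptor beads, excitation 680 nm with emission detected at 520–620 nm via singlet oxygen transfer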
[2] = system: Human pancreatic cancer cell line AsPC-1 (G12D mutation Kras); test: AsPC-1 cell growth inhibition (AsPC-1 CGI); format: cell-based; conditions: read-out: AsPC-1 cell growth inhibition, 50% growth inhibitory concentration (IC50 value); 96 hours, CellTiter-Glo, values classified in ranges
Procedure: Test compounds were serially dilated with dimethyl sulfoxide, and 200 nL was then dispensed to a U-bottom 96-well plate using Labcyte Echo. […] The cell suspension was dispensed to a. plate containing a test compound at 100 μL per well and incubated at 37° C. in a 5% carbon dioxide gas incubator. 96 hours later, 80 μL of CellTiter-Glo (Promega) was added to each well and fluorescence was measured.

## CC[C@H](C)[C@@H]1NC(=O)[C@H](C)N(C)C(=O)C[C@@H](C(=O)N2CCCCC2)N(C)C(=O)[C@H](C(C)C)N(C)C(=O)C2(CCCC2)NC(=O)[C@H](Cc2ccc(F)c(F)c2)N(C)C(=O)[C@H](CCc2ccc(C(F)(F)F)c(Cl)c2)NC(=O)CN(C)C(=O)[C@H](CC2CCCCC2)N(C)C(=O)CN(C)C(=O)CN(C)C1=O [Compound 171] ([NMeA]I[Sar][Sar][NMeCha][Sar][hPhe(3-Cl-4-CF3)][NMePhe(3,4-F2)][Ac5c][NMeV][NMeD]-Piperidide; lactam N-11)
[1]
  IC50: 14 nM
[2]
  IC50: > 500 nM

## CC[C@H](C)[C@@H]1NC(=O)[C@H](CC(C)C)N(C)C(=O)C[C@@H](C(=O)N2CCCCC2)N(C)C(=O)[C@H](CC2CC2)N(C)C(=O)C2(CCCC2)NC(=O)[C@@H]2CCCN2C(=O)[C@H](CCc2ccc(C(F)(F)F)c(Cl)c2)NC(=O)CN(C)C(=O)[C@H](CC2CCCCC2)N(C)C(=O)[C@@H]2CCN2C(=O)[C@H](C)N(C)C1=O [Compound 172] ([NMeL]I[NMeA][Aze][NMeCha][Sar][hPhe(3-Cl-4-CF3)]P[Ac5c][NMeAla(cPr)][NMeD]-Piperidide; lactam N-11)
[1]
  IC50: 4 nM
[2]
  IC50: > 500 nM

## CC(C)C[C@H]1C(=O)N[C@@H](CCS(C)(=O)=O)C(=O)N(C)[C@@H](C)C(=O)N2CC[C@H]2C(=O)N(C)[C@@H](CC2CCCCC2)C(=O)N(C)CC(=O)N[C@@H](CCc2ccc(C(F)(F)F)c(Cl)c2)C(=O)N2CCC[C@H]2C(=O)NC2(CCCC2)C(=O)N(C)[C@@H](C(C)C)C(=O)N(C)[C@H](C(=O)N2CCCCC2)CC(=O)N1C [Compound 174] ([NMeL][Met(O2)][NMeA][Aze][NMeCha][Sar][hPhe(3-Cl-4-CF3)]P[Ac5c][NMeV][NMeD]-Piperidide; lactam N-11)
[1]
  IC50: 57 nM
[2]
  IC50: > 500 nM

## CCCOC[C@H]1C(=O)N(C)CC(=O)N[C@@H](CCc2ccc(C(F)(F)F)c(Cl)c2)C(=O)N2CCC[C@H]2C(=O)NC2(CCCC2)C(=O)N(C)[C@@H](C2CCCC2)C(=O)N(C)[C@H](C(=O)N2C3CCC2COC3)CC(=O)N(C)[C@@H](CC(C)C)C(=O)N[C@@H]([C@@H](C)CC)C(=O)N(C)[C@@H](C)C(=O)N2CC[C@H]2C(=O)N1C [Compound 176] ([NMeL]I[NMeA][Aze][NMeS](Propyl)[Sar][hPhe(3-Cl-4-CF3)]P[Ac5c][NMeGly(cPent)][NMeD]-{3Oxa8azabicyclo(3.2.1)octane}; lactam N-11)
[1]
  IC50: 1.4 nM
[2]
  IC50: ≤ 20 nM

## CC[C@H](C)[C@@H]1NC(=O)[C@H](CC(C)C)N(C)C(=O)C[C@@H](C(=O)N2CCCCC2)N(C)C(=O)[C@H](C(C)C)N(C)C(=O)C2(CCCC2)NC(=O)[C@H](CC(=O)N2CCC(F)(F)CC2)N(C)C(=O)[C@H](CCc2ccc(Cl)cc2)NC(=O)CN(C)C(=O)[C@H](CC2CCCCC2)N(C)C(=O)CN(C)C(=O)CN(C)C1=O [Compound 177] ([NMeL]I[Sar][Sar][NMeCha][Sar][hPhe(4-Cl)][NMeD](N(CH2CH2)2CF2)[Ac5c][NMeV][NMeD]-Piperidide; lactam N-11)
[1]
  IC50: 45 nM
[2]
  IC50: > 500 nM

## CC[C@H](C)[C@@H]1NC(=O)[C@H](CC(C)C)N(C)C(=O)C[C@@H](C(=O)N2CCCCC2)N(C)C(=O)[C@H](C(C)C)N(C)C(=O)C2(CCCC2)NC(=O)[C@@H]2CCCN2C(=O)[C@H](CCc2ccc(C(F)(F)F)c(Cl)c2)NC(=O)CN(C)C(=O)[C@H](CC2CC2)N(C)C(=O)[C@@H]2CCN2C(=O)[C@H](C)N(C)C1=O [Compound 195] ([NMeL]I[NMeA][Aze][NMeAla(cPr)][Sar][hPhe(3-Cl-4-CF3)]P[Ac5c][NMeV][NMeD]-Piperidide; lactam N-11)
[1]
  IC50: 9.5 nM
[2]
  IC50: > 500 nM

## CC[C@H](C)[C@@H]1NC(=O)[C@H](CC(C)C)N(C)C(=O)C[C@@H](C(=O)N2CCCCC2)N(C)C(=O)[C@H](C2CCCCC2)N(C)C(=O)C2(CCCC2)NC(=O)[C@H](CC2CC2)N(C)C(=O)[C@H](CCc2ccc(C(F)(F)F)c(Cl)c2)NC(=O)CN(C)C(=O)[C@H](CC2CCCCC2)N(C)C(=O)CN(C)C(=O)CN(C)C1=O [Compound 200] ([NMeL]I[Sar][Sar][NMeCha][Sar][hPhe(3-Cl-4-CF3)][NMeAla(cPr)][Ac5c][NMeChg][NMeD]-Piperidide; lactam N-11)
[1]
  IC50: 13 nM
[2]
  IC50: > 500 nM

## CC[C@H](C)[C@@H]1NC(=O)[C@H](CC(C)C)N(C)C(=O)C[C@@H](C(=O)N2CCCCC2)N(C)C(=O)[C@H](C2CCCCC2)N(C)C(=O)C2(CCCC2)NC(=O)[C@H](C)NC(=O)[C@H](CCc2ccc(C(F)(F)F)c(Cl)c2)NC(=O)CN(C)C(=O)[C@H](CC2CCCCC2)N(C)C(=O)CN(C)C(=O)CN(C)C1=O [Compound 205] ([NMeL]I[Sar][Sar][NMeCha][Sar][hPhe(3-Cl-4-CF3)]A[Ac5c][NMeChg][NMeD]-Piperidide; lactam N-11)
[1]
  IC50: 0.49 nM
[2]
  IC50: > 500 nM

## CCCCC[C@H]1C(=O)N[C@@H]([C@@H](C)CC)C(=O)N[C@@H](C)C(=O)N2CC[C@H]2C(=O)N(C)[C@@H](Cc2ccc(C(F)(F)F)cc2)C(=O)N(C)CC(=O)N[C@@H](CCc2ccc(C(F)(F)F)c(Cl)c2)C(=O)N2CCC[C@H]2C(=O)NC2(CCCC2)C(=O)N(C)[C@@H]([C@@H](C)CC)C(=O)N(C)[C@H](C(=O)N2CCCC2)CC(=O)N1C [Compound 209] ([NMeAhp(2)]IA[Aze][NMePhe(4-CF3)][Sar][hPhe(3-Cl-4-CF3)]P[Ac5c][NMeI][NMeD]-Pyrrolidide; lactam N-11)
[1]
  IC50: 1.6 nM
[2]
  IC50: ≤ 20 nM
